Experimental data published in patent US8802597B2, “Herbicidal pyrimidines” (E I du Pont de Nemours and Company, priority 2003, dated 2014).

Experiments:
Assay type in all cases: in vivo
[1] = system: water seeded rice seedlings (Oryza sativa cv. ‘Japonica-M202’); test: Test E flooded paddy water application; settings: Flood, 21 days, scale 0 to 100 (0 no effect, 100 complete control)
Method in brief: (§1)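 Weeds sown in sterilized Tama silt loam (2.6% organic matter), greenhouse 29.5/26.7° C, 16-h photoperiod; at 2.0–2.5-leaf stage pots flooded to 3 cm and compound added to paddy water. Visual rating vs untreated controls after 21 days, 0 (no effect) to 100 (complete control).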

[2] = system: late watergrass (Echinochloa oryzicola); test: Test E flooded paddy water application; settings: Flood, 21 days, scale 0 to 100 (0 no effect, 100 complete control)
Method in brief: as §1

[3] = system: rice flatsedge (Cyperus iria); test: Test E flooded paddy water application; settings: Flood, 21 days, scale 0 to 100 (0 no effect, 100 complete control)
Method in brief: as §1

[4] = system: downy brome (Bromus tectorum); test: Test C postemergence
Method in brief: (§2)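 Applications: preemergence onto seeded soil and postemergence onto 1- to 4-leaf seedlings, compound carried in non-phytotoxic solvent plus surfactant. Kept in greenhouse 12 to 14 days. Scored visually relative to untreated controls, 0 (no effect) to 100 (complete control).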

[5] = system: Italian ryegrass (Lolium multiflorum); test: Test C postemergence
Method in brief: as §2

[6] = system: green foxtail (Setaria viridis); test: Test C postemergence
Method in brief: as §2

[7] = system: blackgrass (Alopecurus myosuroides); test: Test C postemergence
Method in brief: as §2

[8] = system: windgrass (Apera spica-venti); test: Test C postemergence
Method in brief: as §2

[9] = system: canarygrass (Phalaris minor); test: Test C postemergence
Method in brief: as §2

[10] = system: winter barley (Hordeum vulgare); test: Test C postemergence
Method in brief: as §2

[11] = system: wheat (Triticum aestivum); test: Test C postemergence
Method in brief: as §2

[12] = 125 g ai/ha, scale 0 to 100 (0 no effect, 100 complete control)

## COC(=O)c1nc(-c2ccc(Br)cc2)nc(N)c1Br [Compound 129]
[1]; 64 g ai/ha
  Rice, Water Seeded plant response rating: 0
[1]; 125 g ai/ha
  Rice, Water Seeded plant response rating: 0
[1]; 250 g ai/ha
  Rice, Water Seeded plant response rating: 0
[1]; 16 g ai/ha
  Plant response rating, Rice, Water Seeded: 0
[1]; 32 g ai/ha
  Plant response rating, Rice, Water Seeded: 0
[2]; 64 g ai/ha
  Watergrass, Late plant response rating: 0
[2]; 125 g ai/ha
  Watergrass, Late plant response rating: 0
[2]; 250 g ai/ha
  Watergrass, Late plant response rating: 0
[2]; 16 g ai/ha
  Plant response rating, Watergrass, Late: 0
[2]; 32 g ai/ha
  Plant response rating, Watergrass, Late: 0
[3]; 64 g ai/ha
  Flatsedge, Rice plant response rating: 100
[3]; 125 g ai/ha
  Flatsedge, Rice plant response rating: 100
[3]; 250 g ai/ha
  Flatsedge, Rice plant response rating: 100
[3]; 16 g ai/ha
  Plant response rating, Flatsedge, Rice: 100
[3]; 32 g ai/ha
  Plant response rating, Flatsedge, Rice: 100
[4]; 16 g ai/ha
  Plant response rating (scale of 0 to 100), Bromegrass, Downy: 0
[4]; 31 g ai/ha
  Plant response rating (scale of 0 to 100), Bromegrass, Downy: 0
[4]; 62 g ai/ha
  Plant response rating (scale of 0 to 100), Bromegrass, Downy: 0
[4]; [12]
  Bromegrass, Downy plant response rating: 0
[5]; 16 g ai/ha
  Plant response rating (scale of 0 to 100), Ryegrass, Italian: 45
[5]; 31 g ai/ha
  Plant response rating (scale of 0 to 100), Ryegrass, Italian: 55
[5]; 62 g ai/ha
  Plant response rating (scale of 0 to 100), Ryegrass, Italian: 55
[5]; [12]
  Ryegrass, Italian plant response rating: 60
[6]; 16 g ai/ha
  Plant response rating (scale of 0 to 100), Foxtail, Green: 40
[6]; 31 g ai/ha
  Plant response rating (scale of 0 to 100), Foxtail, Green: 40
[6]; 62 g ai/ha
  Plant response rating (scale of 0 to 100), Foxtail, Green: 40
[6]; [12]
  Foxtail, Green plant response rating: 60
[7]; 16 g ai/ha
  Plant response rating (scale of 0 to 100), Blackgrass: 35
[7]; 31 g ai/ha
  Plant response rating (scale of 0 to 100), Blackgrass: 45
[7]; 62 g ai/ha
  Plant response rating (scale of 0 to 100), Blackgrass: 50
[7]; [12]
  Blackgrass plant response rating: 50
[8]; 16 g ai/ha
  Plant response rating (scale of 0 to 100), Windgrass: 40
[8]; 31 g ai/ha
  Plant response rating (scale of 0 to 100), Windgrass: 45
[8]; 62 g ai/ha
  Plant response rating (scale of 0 to 100), Windgrass: 60
[8]; [12]
  Windgrass plant response rating: 60
[9]; 16 g ai/ha
  Plant response rating (scale of 0 to 100), Canarygrass: 0
[9]; 31 g ai/ha
  Plant response rating (scale of 0 to 100), Canarygrass: 30
[9]; 62 g ai/ha
  Plant response rating (scale of 0 to 100), Canarygrass: 30
[9]; [12]
  Canarygrass plant response rating: 30
[10]; 16 g ai/ha
  Plant response rating (scale of 0 to 100), Barley: 35
[10]; 31 g ai/ha
  Plant response rating (scale of 0 to 100), Barley: 40
[10]; 62 g ai/ha, scale 0 to 100 (0 no effect, 100 complete control)
  Barley plant response rating: 45
[10]; [12]
  Barley plant response rating: 45
[11]; 16 g ai/ha
  Plant response rating (scale of 0 to 100), Wheat: 0
[11]; 31 g ai/ha
  Plant response rating (scale of 0 to 100), Wheat: 35
[11]; 62 g ai/ha
  Plant response rating (scale of 0 to 100), Wheat: 35
[11]; [12]
  Wheat plant response rating: 35

## CCOC(=O)c1nc(-c2ccc(Cl)cc2)nc(N)c1Cl [Compound 64, ethyl 6-amino-5-chloro-2-(4-chlorophenyl)-4-pyrimidinecarboxylate]
[1]; 32 g ai/ha
  Rice, Water Seeded plant response rating: 0
[1]; 64 g ai/ha
  Rice, Water Seeded plant response rating: 0
[1]; 125 g ai/ha
  Rice, Water Seeded plant response rating: 0
[1]; 250 g ai/ha
  Rice, Water Seeded plant response rating: 0
[1]; 16 g ai/ha
  Plant response rating, Rice, Water Seeded: 0
[2]; 32 g ai/ha
  Watergrass, Late plant response rating: 0
[2]; 64 g ai/ha
  Watergrass, Late plant response rating: 0
[2]; 125 g ai/ha
  Watergrass, Late plant response rating: 20
[2]; 250 g ai/ha
  Watergrass, Late plant response rating: 20
[2]; 16 g ai/ha
  Plant response rating, Watergrass, Late: 0
[3]; 32 g ai/ha
  Flatsedge, Rice plant response rating: 85
[3]; 64 g ai/ha
  Flatsedge, Rice plant response rating: 90
[3]; 125 g ai/ha
  Flatsedge, Rice plant response rating: 100
[3]; 250 g ai/ha
  Flatsedge, Rice plant response rating: 100
[3]; 16 g ai/ha
  Plant response rating, Flatsedge, Rice: 75
[4]; 31 g ai/ha
  Plant response rating (scale of 0 to 100), Bromegrass, Downy: 10
[4]; 250 g ai/ha, scale 0 to 100
  Plant response rating, Bromegrass, Downy: 20
[4]; Bromus tectorum, post-emergence, 62 g ai/ha, scale 0 to 100 (0 no effect, 100 complete control), read-out: Bromegrass, Downy plant response rating
  pest or weed control at 62 g/ha: 15%
[4]; Bromus tectorum, post-emergence, 125 g ai/ha, scale 0 to 100 (0 no effect, 100 complete control), read-out: Bromegrass, Downy plant response rating
  pest or weed control at 125 g/ha: 20%
[5]; 31 g ai/ha
  Plant response rating (scale of 0 to 100), Ryegrass, Italian: 5
[5]; 250 g ai/ha, scale 0 to 100
  Plant response rating, Ryegrass, Italian: 45
[5]; Lolium multiflorum, post-emergence, 62 g ai/ha, scale 0 to 100 (0 no effect, 100 complete control), read-out: Ryegrass, Italian plant response rating
  pest or weed control at 62 g/ha: 30%
[5]; Lolium multiflorum, post-emergence, 125 g ai/ha, scale 0 to 100 (0 no effect, 100 complete control), read-out: Ryegrass, Italian plant response rating
  pest or weed control at 125 g/ha: 35%
[6]; 31 g ai/ha
  Plant response rating (scale of 0 to 100), Foxtail, Green: 0
[6]; 250 g ai/ha, scale 0 to 100
  Plant response rating, Foxtail, Green: 45
[6]; Setaria viridis, post-emergence, 62 g ai/ha, scale 0 to 100 (0 no effect, 100 complete control), read-out: Foxtail, Green plant response rating
  pest or weed control at 62 g/ha: 30%
[6]; Setaria viridis, post-emergence, 125 g ai/ha, scale 0 to 100 (0 no effect, 100 complete control), read-out: Foxtail, Green plant response rating
  pest or weed control at 125 g/ha: 40%
[7]; 31 g ai/ha
  Plant response rating (scale of 0 to 100), Blackgrass: 40
[7]; 250 g ai/ha, scale 0 to 100
  Plant response rating, Blackgrass: 50
[7]; Alopecurus myosuroides, post-emergence, 62 g ai/ha, scale 0 to 100 (0 no effect, 100 complete control), read-out: Blackgrass plant response rating
  pest or weed control at 62 g/ha: 45%
[7]; Alopecurus myosuroides, post-emergence, 125 g ai/ha, scale 0 to 100 (0 no effect, 100 complete control), read-out: Blackgrass plant response rating
  pest or weed control at 125 g/ha: 50%
[8]; 31 g ai/ha
  Plant response rating (scale of 0 to 100), Windgrass: 40
[8]; 250 g ai/ha, scale 0 to 100
  Plant response rating, Windgrass: 60
[8]; Apera spica-venti, post-emergence, 62 g ai/ha, scale 0 to 100 (0 no effect, 100 complete control), read-out: Windgrass plant response rating
  pest or weed control at 62 g/ha: 55%
[8]; Apera spica-venti, post-emergence, 125 g ai/ha, scale 0 to 100 (0 no effect, 100 complete control), read-out: Windgrass plant response rating
  pest or weed control at 125 g/ha: 55%
[9]; 31 g ai/ha
  Plant response rating (scale of 0 to 100), Canarygrass: 5
[9]; 250 g ai/ha, scale 0 to 100
  Plant response rating, Canarygrass: 10
[9]; Phalaris minor, post-emergence, 62 g ai/ha, scale 0 to 100 (0 no effect, 100 complete control), read-out: Canarygrass plant response rating
  pest or weed control at 62 g/ha: 5%
[9]; Phalaris minor, post-emergence, 125 g ai/ha, scale 0 to 100 (0 no effect, 100 complete control), read-out: Canarygrass plant response rating
  pest or weed control at 125 g/ha: 10%
[10]; 31 g ai/ha
  Plant response rating (scale of 0 to 100), Barley: 20
[10]; 250 g ai/ha, scale 0 to 100
  Plant response rating, Barley: 100
[10]; Hordeum vulgare, post-emergence, 62 g ai/ha, scale 0 to 100 (0 no effect, 100 complete control), read-out: Barley plant response rating
  plant injury at 62 g/ha: 20%
[11]; 31 g ai/ha
  Plant response rating (scale of 0 to 100), Wheat: 0
[11]; 250 g ai/ha, scale 0 to 100
  Plant response rating, Wheat: 10
[11]; Triticum aestivum, post-emergence, 62 g ai/ha, scale 0 to 100 (0 no effect, 100 complete control), read-out: Wheat plant response rating
  plant injury at 62 g/ha: 0%
[11]; Triticum aestivum, post-emergence, 125 g ai/ha, scale 0 to 100 (0 no effect, 100 complete control), read-out: Wheat plant response rating
  plant injury at 125 g/ha: 10%
